These results are taken from ChEMBL document CHEMBL5214927, “Recent advance on carbamate-based cholinesterase inhibitors as potential multifunctional agents against Alzheimer's disease” (Eur J Med Chem, 2022).

Some results are limits rather than exact numbers.

For assay [1], the target named is T1, Acetylcholinesterase (Homo sapiens, UniProt P22303). Description: Inhibition of recombinant human AChE using acetylthiocholine as substrate at 100 uM preincubated for 5 mins followed by substrate addition measured for 1 min by Ellman's method relative to control. Conditions: time 6.0 min.
T1 sequence (P22303 whole entry): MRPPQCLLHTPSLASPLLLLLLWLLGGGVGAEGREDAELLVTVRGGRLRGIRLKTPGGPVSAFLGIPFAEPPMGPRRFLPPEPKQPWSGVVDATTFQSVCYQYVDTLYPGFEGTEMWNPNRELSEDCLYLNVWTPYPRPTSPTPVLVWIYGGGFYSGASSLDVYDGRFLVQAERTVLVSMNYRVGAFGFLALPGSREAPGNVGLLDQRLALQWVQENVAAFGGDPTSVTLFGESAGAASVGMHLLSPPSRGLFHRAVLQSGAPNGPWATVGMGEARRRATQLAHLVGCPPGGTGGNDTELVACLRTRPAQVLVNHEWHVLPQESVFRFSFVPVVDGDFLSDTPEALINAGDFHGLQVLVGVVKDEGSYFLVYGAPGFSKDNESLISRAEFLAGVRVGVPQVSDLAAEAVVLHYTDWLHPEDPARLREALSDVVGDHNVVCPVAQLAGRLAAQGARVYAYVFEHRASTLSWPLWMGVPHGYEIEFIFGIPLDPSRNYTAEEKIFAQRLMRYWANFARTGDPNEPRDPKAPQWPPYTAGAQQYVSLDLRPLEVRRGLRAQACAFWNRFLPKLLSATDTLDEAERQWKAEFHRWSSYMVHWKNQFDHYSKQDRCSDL
Assay [2] has as its target T2, Amine oxidase [flavin-containing] A (Homo sapiens, UniProt P21397).
T2 sequence (P21397 whole entry): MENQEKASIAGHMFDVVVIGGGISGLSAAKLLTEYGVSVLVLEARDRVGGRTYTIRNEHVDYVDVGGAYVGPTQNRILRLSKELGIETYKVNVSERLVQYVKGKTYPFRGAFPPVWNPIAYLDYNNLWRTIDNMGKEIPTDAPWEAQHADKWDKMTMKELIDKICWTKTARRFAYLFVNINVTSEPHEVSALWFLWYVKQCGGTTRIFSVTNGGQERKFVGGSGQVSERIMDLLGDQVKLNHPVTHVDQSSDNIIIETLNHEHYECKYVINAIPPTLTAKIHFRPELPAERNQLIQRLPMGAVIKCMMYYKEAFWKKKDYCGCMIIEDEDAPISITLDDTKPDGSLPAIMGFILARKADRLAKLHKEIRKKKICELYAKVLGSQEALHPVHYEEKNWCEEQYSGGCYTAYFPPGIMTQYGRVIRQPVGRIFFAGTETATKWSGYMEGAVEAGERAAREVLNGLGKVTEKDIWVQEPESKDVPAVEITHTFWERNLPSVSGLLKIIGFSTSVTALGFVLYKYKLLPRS
Description: Inhibition of recombinant human MAO-A expressed in BTI-TN-5B1-4 insect cells using p-tyramine as substrate at 100 uM preincubated for 15 mins followed by substrate addition measured after 20 mins by Amplex Red assay relative to control. Conditions: BTI-TN-5B1-4, human, time 35 min.

In assay [3] the target is T2, Amine oxidase [flavin-containing] A. As to the kind of experiment: Inhibition of MAO-A (unknown origin).
The target in assay [4] is T3, Acetylcholinesterase (Rattus norvegicus, UniProt P37136).
T3 sequence (P37136 whole entry): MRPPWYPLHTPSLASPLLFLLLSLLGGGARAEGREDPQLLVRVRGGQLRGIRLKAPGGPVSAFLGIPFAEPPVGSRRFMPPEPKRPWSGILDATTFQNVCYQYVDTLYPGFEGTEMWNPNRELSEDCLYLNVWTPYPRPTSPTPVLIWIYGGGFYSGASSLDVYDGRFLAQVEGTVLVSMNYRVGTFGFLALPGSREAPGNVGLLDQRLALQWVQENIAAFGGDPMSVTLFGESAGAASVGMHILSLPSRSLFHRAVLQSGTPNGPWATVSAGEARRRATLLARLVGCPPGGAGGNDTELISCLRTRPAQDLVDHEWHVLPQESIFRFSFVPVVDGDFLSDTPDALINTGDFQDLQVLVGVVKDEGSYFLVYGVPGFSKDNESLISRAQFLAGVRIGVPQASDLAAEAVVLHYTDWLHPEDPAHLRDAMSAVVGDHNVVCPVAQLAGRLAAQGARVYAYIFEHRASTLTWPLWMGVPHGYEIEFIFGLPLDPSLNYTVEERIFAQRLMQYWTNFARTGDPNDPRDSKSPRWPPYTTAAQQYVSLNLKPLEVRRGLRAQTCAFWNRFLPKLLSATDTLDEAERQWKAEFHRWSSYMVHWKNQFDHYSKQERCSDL
Description: Inhibition of rat AChE by Ellman's method.

The target of assay [5] is T4, Amine oxidase [flavin-containing] B (Homo sapiens, UniProt P27338).
T4 sequence (P27338 whole entry): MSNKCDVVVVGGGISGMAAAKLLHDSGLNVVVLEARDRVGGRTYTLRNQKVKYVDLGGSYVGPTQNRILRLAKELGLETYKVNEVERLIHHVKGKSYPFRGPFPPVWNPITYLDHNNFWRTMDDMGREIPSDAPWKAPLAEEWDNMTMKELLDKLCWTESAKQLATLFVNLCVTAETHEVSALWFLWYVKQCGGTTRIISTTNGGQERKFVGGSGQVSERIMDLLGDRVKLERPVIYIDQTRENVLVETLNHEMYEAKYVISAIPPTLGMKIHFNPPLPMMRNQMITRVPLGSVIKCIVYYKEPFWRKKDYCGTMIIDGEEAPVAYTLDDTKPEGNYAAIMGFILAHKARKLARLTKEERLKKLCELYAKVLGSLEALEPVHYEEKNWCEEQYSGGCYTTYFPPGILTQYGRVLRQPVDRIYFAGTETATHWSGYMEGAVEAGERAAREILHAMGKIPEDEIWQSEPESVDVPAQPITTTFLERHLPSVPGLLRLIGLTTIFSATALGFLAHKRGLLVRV
Description: Inhibition of MAO-B (unknown origin).

In assay [6] the target is T1, Acetylcholinesterase. As to the kind of experiment: Inhibition of human whole red blood cells AChE using acetylthiocholine iodide as substrate incubated for 25 mins by Ellman's method.
Assay [7] addresses T5, Cholinesterases; ACHE & BCHE (Homo sapiens) (UniProt P06276+P22303). Description: Selectivity index, ratio of IC50 for human whole red blood cells BChE to IC50 for human whole red blood cells AChE.
Assay [8] concerns the target T6, Cholinesterase (Homo sapiens, UniProt P06276). As to the kind of experiment: Inhibition of human whole red blood cells BChE using butyrylthiocholine iodide as substrate incubated for 25 mins by Ellman's method.
The next assay deals with Carbonic anhydrase 2 (Homo sapiens, UniProt P00918). Description: Binding affinity to human CA2 assessed as inhibition constant using p-nitrophenylacetate as substrate by spectrophotometry.
The next assay concerns the target Carbonic anhydrase 1 (Homo sapiens, UniProt P00915). Description: Binding affinity to human CA1 assessed as inhibition constant using p-nitrophenylacetate as substrate by spectrophotometry.
For assay [9], the target named is T1, Acetylcholinesterase. Description: Binding affinity to AChE (unknown origin) assessed as inhibition constant using acetylthiocholine iodide as substrate preincubated for 10 mins followed by substrate addition by Ellman's method.
A further assay concerns the target Beta-secretase 1 (Homo sapiens, UniProt P56817). As to the kind of experiment: Inhibition of BACE1 (unknown origin) using A-beta-PP as substrate by fluorescence based assay.
The target of assay [10] is T1, Acetylcholinesterase. As to the kind of experiment: Binding affinity to AChE (unknown origin) assessed as inhibition constant preincubated for 60 mins followed by substrate addition measured after 60 mins by colorimetric method.
The target of assay [11] is T5, Cholinesterases; ACHE & BCHE (Homo sapiens). As to the kind of experiment: Selectivity index, ratio of IC50 for AChE (unknown origin) to BChE (unknown origin). The format is protein assay.
In assay [12] the target is Acetylcholinesterase (Torpedo californica, UniProt P04058).
Acetylcholinesterase (Torpedo californica, UniProt P04058), sequence (P04058 whole entry): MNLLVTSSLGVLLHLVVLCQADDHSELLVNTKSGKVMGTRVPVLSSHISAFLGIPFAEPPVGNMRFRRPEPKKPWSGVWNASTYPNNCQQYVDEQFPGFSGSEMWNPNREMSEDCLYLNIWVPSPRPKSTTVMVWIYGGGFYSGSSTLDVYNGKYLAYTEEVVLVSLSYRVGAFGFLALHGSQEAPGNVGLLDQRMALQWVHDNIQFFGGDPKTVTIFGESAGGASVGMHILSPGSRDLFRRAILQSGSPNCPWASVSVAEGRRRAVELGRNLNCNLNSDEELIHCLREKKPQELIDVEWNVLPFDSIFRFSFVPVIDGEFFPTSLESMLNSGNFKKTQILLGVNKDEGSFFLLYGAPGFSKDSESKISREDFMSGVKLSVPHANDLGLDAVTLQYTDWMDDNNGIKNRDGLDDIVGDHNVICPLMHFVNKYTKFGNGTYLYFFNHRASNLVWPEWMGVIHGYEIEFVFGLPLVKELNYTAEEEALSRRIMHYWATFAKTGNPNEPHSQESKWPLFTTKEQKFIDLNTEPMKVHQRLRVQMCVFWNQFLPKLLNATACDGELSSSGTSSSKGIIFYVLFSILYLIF
Description: Inhibition of Pacific electric ray AChE using acetylthiocholine iodide as substrate by Ellman's method
The nature of assay [13]: Selectivity index, ratio of IC50 for human plasma BChE to IC50 for electric eel AChE.
Assay [14] deals with Acetylcholinesterase and butyrylcholinesterase (AChE and BChE) (Rattus norvegicus) (UniProt P37136+Q9JKC1). Description: Selectivity index, ratio of IC50 for rat serum BChE to IC50 for rat cortex AChE.
Acetylcholinesterase and butyrylcholinesterase (AChE and BChE) (Rattus norvegicus), sequence (Q9JKC1 1-597, one chain of several): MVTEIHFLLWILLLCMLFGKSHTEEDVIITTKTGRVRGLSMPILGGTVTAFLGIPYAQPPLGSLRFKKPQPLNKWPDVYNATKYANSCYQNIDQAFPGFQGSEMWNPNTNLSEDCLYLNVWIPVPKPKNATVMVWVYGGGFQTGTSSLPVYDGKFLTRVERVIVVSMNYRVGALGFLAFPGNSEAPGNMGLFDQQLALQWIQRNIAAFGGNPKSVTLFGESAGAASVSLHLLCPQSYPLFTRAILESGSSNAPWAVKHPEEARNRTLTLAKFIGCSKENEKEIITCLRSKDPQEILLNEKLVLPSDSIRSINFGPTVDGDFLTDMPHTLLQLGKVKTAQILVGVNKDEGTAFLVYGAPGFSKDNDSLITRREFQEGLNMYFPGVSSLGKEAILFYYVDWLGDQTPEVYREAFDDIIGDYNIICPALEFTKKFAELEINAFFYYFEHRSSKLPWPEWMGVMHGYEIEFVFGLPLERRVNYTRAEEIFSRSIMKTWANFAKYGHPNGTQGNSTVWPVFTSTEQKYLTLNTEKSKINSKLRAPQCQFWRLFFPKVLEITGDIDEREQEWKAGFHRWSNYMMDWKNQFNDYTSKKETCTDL
Another assay deals with Butyrylcholinesterase (Rattus norvegicus, UniProt Q9JKC1). As to the kind of experiment: Inhibition of rat serum BChE using butyrylthiocholine iodide as substrate incubated for 15 mins by Ellman's method.
Butyrylcholinesterase, sequence (Q9JKC1 whole entry): as the sequence (Q9JKC1 1-597, one chain of several) above
Assay [15] concerns the target T3, Acetylcholinesterase. Description: Inhibition of rat cortex AChE using acetylthiocholine iodide as substrate incubated for 15 mins by Ellman's method.
For assay [16], the target named is T1, Acetylcholinesterase. As to the kind of experiment: Inhibition of human AChE using acetylthiocholine iodide as substrate preincubated for 10 mins followed by substrate addition by spectrophotometry.
Assay [17] concerns the target T5, Cholinesterases; ACHE & BCHE (Homo sapiens). As to the kind of experiment: Selectivity index, ratio of IC50 for human plasma BChE to IC50 for human erythrocyte AChE. The format is protein assay.
The target of assay [18] is T1, Acetylcholinesterase. Description: Inhibition of human erythrocyte AChE using acetyl-(beta-methyl)thiocholine as substrate by Ellman's method.
Assay [19] concerns the target T6, Cholinesterase. Description: Inhibition of human plasma BChE using S-butyrylthiocholine as substrate by Ellman's method.
For assay [20], the target named is T6, Cholinesterase. Description: Inhibition of human serum BChE using butyrylthiocholine as substrate by Ellman's method.
For assay [21], the target named is T1, Acetylcholinesterase.
Description: Inhibition of human erythrocyte AChE using acetylthiocholine iodide as substrate preincubated for 30 mins followed by substrate addition measured after 5 mins by Ellman's method
Assay [22] deals with T6, Cholinesterase. Description: Binding affinity of human serum BChE assessed as inhibition constant by Ellman's method.

T6 sequence (P06276 whole entry): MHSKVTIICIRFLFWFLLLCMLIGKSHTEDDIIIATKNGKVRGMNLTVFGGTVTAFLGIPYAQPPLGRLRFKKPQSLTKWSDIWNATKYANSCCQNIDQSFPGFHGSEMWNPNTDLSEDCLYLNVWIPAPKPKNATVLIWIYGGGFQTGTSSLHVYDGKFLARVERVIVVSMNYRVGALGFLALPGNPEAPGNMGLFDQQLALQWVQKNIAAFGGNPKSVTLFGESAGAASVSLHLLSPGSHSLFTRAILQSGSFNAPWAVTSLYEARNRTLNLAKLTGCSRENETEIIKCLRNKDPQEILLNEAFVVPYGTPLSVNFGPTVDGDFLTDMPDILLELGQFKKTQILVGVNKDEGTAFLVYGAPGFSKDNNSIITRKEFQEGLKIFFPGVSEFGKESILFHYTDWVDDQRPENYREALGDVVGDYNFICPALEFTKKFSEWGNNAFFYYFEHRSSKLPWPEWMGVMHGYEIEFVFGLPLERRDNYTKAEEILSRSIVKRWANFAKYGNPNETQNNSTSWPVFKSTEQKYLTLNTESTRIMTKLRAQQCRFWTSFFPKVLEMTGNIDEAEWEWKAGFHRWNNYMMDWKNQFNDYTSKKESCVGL
T5 sequence (P06276 whole entry, looked up): as the sequence (P06276 whole entry) above
T5 sequence (P22303 whole entry, looked up): as the sequence (P22303 whole entry) above
Carbonic anhydrase 1, sequence (P00915 whole entry): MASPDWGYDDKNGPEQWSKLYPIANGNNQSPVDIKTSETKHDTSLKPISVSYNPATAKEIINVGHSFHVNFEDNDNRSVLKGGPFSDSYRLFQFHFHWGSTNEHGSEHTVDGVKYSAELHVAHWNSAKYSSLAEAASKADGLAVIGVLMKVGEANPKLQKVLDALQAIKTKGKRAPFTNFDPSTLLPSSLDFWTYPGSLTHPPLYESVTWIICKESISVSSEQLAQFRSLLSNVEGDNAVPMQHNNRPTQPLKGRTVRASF
Beta-secretase 1, sequence (P56817 whole entry): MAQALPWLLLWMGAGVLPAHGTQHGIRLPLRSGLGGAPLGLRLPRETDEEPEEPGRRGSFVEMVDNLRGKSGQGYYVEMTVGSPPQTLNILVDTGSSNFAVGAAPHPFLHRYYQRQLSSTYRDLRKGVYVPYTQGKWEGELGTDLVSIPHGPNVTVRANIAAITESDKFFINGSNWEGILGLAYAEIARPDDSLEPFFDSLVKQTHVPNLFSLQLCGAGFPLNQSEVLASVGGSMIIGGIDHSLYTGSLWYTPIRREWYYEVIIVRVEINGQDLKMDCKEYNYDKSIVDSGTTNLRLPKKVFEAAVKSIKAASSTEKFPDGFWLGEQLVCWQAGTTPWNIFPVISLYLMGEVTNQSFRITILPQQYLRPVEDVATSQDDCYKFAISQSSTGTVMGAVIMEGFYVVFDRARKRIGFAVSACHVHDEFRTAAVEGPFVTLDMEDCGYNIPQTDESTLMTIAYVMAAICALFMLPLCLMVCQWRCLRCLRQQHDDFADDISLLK

Consider `C#CCN1CCC(CCc2cccc(OC(=O)Nc3ccccc3)c2)CC1`, for which the inhibition at Acetylcholinesterase [1] is 51.9%. The inhibition at 100 µM in assay [2] worked out at 54%.

Consider `CC/N=C1\CCc2c1n(C)c1ccc(OC(=O)NC)c(Cl)c21`, for which the IC50 was 0.1 µM in assay [3], 0.16 µM on Acetylcholinesterase [4] and over 1000 µM in [5].

`CC(=O)N1CC[C@@]2(O)c3cc(OC(=O)Nc4ccccc4)ccc3N[C@@H]12`: the IC50 at Acetylcholinesterase [6] was 0.25 µM; on Cholinesterase [8], over 100 µM. In addition, the Ratio IC50 in [7] is over 400.

Consider `COc1cccc2c1CCC(NC(=O)OCc1ccccc1)C2` (stereo not drawn), for which the Ki amounted to 0.00739 µM on Carbonic anhydrase 2, 0.00589 µM at Carbonic anhydrase 1 and 0.000264 µM on Acetylcholinesterase [9].

For the compound `CC(C)(C)OC(=O)Nc1ccc(O)c(C(=O)NCCCN2CCCCC2)c1`, the IC50 against Beta-secretase 1 stood at 0.0151 µM. Further, the Ki at Acetylcholinesterase [10] came to 0.12 µM.

Regarding `CCc1ccccc1NC(=O)Oc1ccc2c(c1)[C@]1(C)CC[N+](C)([O-])[C@@H]1N2C` (stereo partly drawn), in [11], the Ratio IC50 came out at 115. The compound also came in with an IC50 at Acetylcholinesterase [12] of 0.00474 µM.

With `O=C(CCCCC1CCSS1)O[C@@H]1CO[C@H]2[C@@H]1OC[C@@H]2OC(=O)NCc1ccccc1` (stereo partly drawn), in [13], the Ratio IC50 came to 667.

Consider `CCNC(=O)Oc1ccc(-c2cc(=O)c3c(O)c(O)c(O)cc3o2)cc1`, for which the Ratio IC50 in [14] came out at 18.4. Further, the results for the IC50 against Butyrylcholinesterase and against Acetylcholinesterase [15] were 22.1 µM and 1.2 µM, respectively.

Turning to `CCOC(=O)C1=CN(C)c2cccc(OC(=O)N(C)C)c2C1`, the IC50 against Acetylcholinesterase [16] is over 1000 µM.

On to `C#CCN1CCC(CCc2cccc(OC(=O)N(C)CC)c2)CC1`, for which, on Acetylcholinesterase [1], the inhibition was found to be 50.2%. In addition, the inhibition at 100 µM in [2] is 69.4%.

For the compound `CNC(=O)Oc1ccc2c(c1)[C@]1(C)CCO[C@@H]1N2C`, in [17], the Ratio IC50 is 27. The figures for the IC50 against Acetylcholinesterase [18] and on Cholinesterase [19] were 0.004 µM and 0.0067 µM, respectively.

For `CN(CCCOc1ccc2c(=O)c3ccccc3oc2c1)Cc1cccc(OC(=O)NCCCCCCCCCN2CCOCC2)c1`, the IC50 on Cholinesterase [20] was found to be 0.0293 µM; on Acetylcholinesterase [21] it was 0.0089 µM.

`CC(C)c1ccc(NC(=O)Oc2ccc3c(c2)[C@]2(C)CCN(Cc4ccc(F)cc4)[C@@H]2N3C)cc1`: at Cholinesterase [22], the Ki was 0.342 µM.
